Reference: patent US20110071197A1, “BIS-ARYL COMPOUNDS FOR USE AS MEDICAMENTS” (priority 2008, published 2011)

Target: T1, Recombinant human LTC4 synthase (Homo sapiens, UniProt Q16873)
T1 construct: made in house; host or cells: Pichia pastoris
T1 sequence (Q16873 1-150): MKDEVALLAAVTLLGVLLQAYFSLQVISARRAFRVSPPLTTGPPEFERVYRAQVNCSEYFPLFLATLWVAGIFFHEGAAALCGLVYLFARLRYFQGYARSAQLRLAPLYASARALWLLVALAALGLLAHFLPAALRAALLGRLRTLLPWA
Experiment: LTC4 synthase in vitro assay (HTRF detection of LTC4)
Type: biochemical
Details: compound concentration 3 μM; HTRF method
Procedure: Alternatively HTRF detection of LTC4 can be used:
In the assay, LTC4 synthase catalyses the reaction where the substrate LTA4 is converted to LTC4. Recombinant human LTC4 synthase is expressed in Piccia pastoralis and the purified enzyme is dissolved in 25 mM Tris-buffer pH 7.8 supplemented with 0.1 mM glutathione (GSH) and stored at −80° C. The assay is performed in phosphate buffered saline (PBS) pH 7.4 and 5 mM GSH in 384-well plates.
The following is added chronologically to each well: • 1. 48 μl LTC4 synthase in PBS with 5 mM GSH. The total protein concentration in this solution is 0.5 μg/ml. • 2. […] Incubation of the plate at room temperature for 10 minutes. • 4. 1 μl LTA4 (final conc. 2.5 μM). • 5. Incubation of the plate at room temperature for 5 minutes. • 6. 10 μl of the incubation mixture is analysed using homogeneous time resolved fluorescent (HTRF) detection.

Question: Which inhibition at 3 µM does the source give for `CCCCOc1ccc(S(=O)(=O)NC(=O)Cc2cccc(Oc3ccc(Nc4ccc(Cl)cc4)c(C(=O)O)c3)c2)cc1` [26:1, 5-{3-[2-(4-Butoxybenzenesulfonyl-amino)-2-oxoethyl]phenoxy}-2-(4-chlorophenylamino)benzoic acid] here?
Answer: 94%

Question: With `CCOc1ccc(C(=O)Nc2ccc(Oc3ccc(NC(=O)c4ccccc4)cc3)cc2C(=O)O)cc1` [8:11, 5-(4-benzoylaminophenoxy)-2-(4-ethoxybenzoylamino)-benzoic acid] as the molecule, how does the inhibition at 3 µM read?
Answer: 70%

Same assay, conditions: total concentration of title compound in the assay 10 μM; HTRF method

Question: For `O=C(O)c1cc(Oc2ccc(Nc3cc(C(F)(F)F)ccc3Cl)c(C(=O)O)c2)ccc1Nc1ccc(F)c(F)c1` [1:1, 5-(3-carboxy-4-(2-chloro-5-trifluoromethylphenylamino)-phenyloxy)-2-(3,4-difluoro-phenylamino)benzoic acid], which inhibition at 10 µM is on record?
Answer: 98%

Question: For `CC(C)Oc1ccc(C(=O)Nc2ccc(Oc3ccc(NC(=O)c4ccccc4)c(C(=O)O)c3)cc2)cc1` [8:13, 2-benzoylamino-5-[4-(4-iso-propoxybenzoylamino)-phenoxy]benzoic acid], which inhibition at 10 µM is on record?
Answer: 98%

Question: Which inhibition at 10 µM does the source give for `O=C(Nc1ccc(Sc2ccc(NC(=O)c3ccc(C(F)(F)F)cc3)c(C(=O)O)c2)cc1C(=O)O)c1ccc(C(F)(F)F)cc1` [13:3, 2-(4-(trifluoromethyl)-benzamido)-5-((4-(4-(trifluoromethyl)benzamido)-3-carboxyphenyl)sulfanyl)benzoic acid] here?
Answer: 99%

Question: `O=C(Nc1ccc(Oc2ccc(NC(=O)c3cccc(Cl)c3)c(C(=O)O)c2)cc1C(=O)O)c1ccccc1` [5:3, 5-[3-carboxy-4-(3-chlorobenzamido)-phenyloxy]-2-benzamidobenzoic acid] was tested. Which inhibition at 10 µM did it give?
Answer: 100%

Question: `CCCCc1ccc(C(=O)Nc2ccc(Oc3ccc(N(C)C(=O)c4ccc(CCCC)cc4)cc3)cc2C(=O)O)cc1` [9:1, 5-(4-((N-methyl)-4-butylbenz-amido)phenoxy)-2-(4-butylbenz-amido)benzoic acid] was tested. Which “% inh.” value did it give?
Answer: 100%

Question: Which inhibition at 10 µM does the source give for `CCCCOc1ccc(S(=O)(=O)NC(=O)c2cccc(Oc3ccc(Nc4ccc(Cl)cc4)c(C(=O)O)c3)c2)cc1` [20:9, 5-[3-(4-Butoxy-benzenesulfonyl-aminocarbonyl)-phenoxy]-2-(4-chloro-phenylamino)-benzoic acid] here?
Answer: 100%

Question: With `CCCCc1ccc(C(=O)Nc2ccc(Oc3ccc(NS(=O)(=O)c4ccccc4)c(C(=O)O)c3)cc2C(=O)O)cc1` [Example 7:2] as the molecule, how does the “% inh.” value read?
Answer: 100%

Question: For `CCCCOc1ccc(S(=O)(=O)Nc2ccc(Oc3cccc(C(=O)NS(=O)(=O)c4ccc(F)c(F)c4)c3)cc2C(=O)O)cc1` [20:5, 2-(4-Butoxy-benzenesulfonylamino)-5-[3-(3,4-difluoro-benzenesulfonyl-aminocarbonyl)-phenoxy]-benzoic acid], which inhibition at 10 µM is on record?
Answer: 97%

Question: For `O=C(NS(=O)(=O)c1cccc(Cl)c1F)c1cccc(Oc2ccc(Nc3ccc(Cl)cc3)c(C(=O)O)c2)c1` [20:3, 5-[3-(3-Chloro-2-fluoro-benzene-sulfonylaminocarbonyl)-phenoxy]-2-(4-chloro-phenylamino)-benzoic acid], which inhibition at 10 µM is on record?
Answer: 97%

Question: How did the “% inh.” value turn out when `CCCCN(c1ccc(Oc2ccc(Nc3ccc(Cl)cc3)c(C(=O)O)c2)cc1)c1ccc(F)c(F)c1` [24:2] was run?
Answer: 95%

Question: With `COc1ccc(S(=O)(=O)N(C)c2ccc(Oc3ccc(NC(=O)c4ccc(Cl)cc4Cl)c(C(=O)O)c3)cc2)cc1` [11:4] as the molecule, how does the “% inh.” value read?
Answer: 98%

Question: `CCCCc1ccc(C(=O)Nc2ccc(Oc3ccc(NC(=O)c4ccc(Cl)cc4Cl)c(CC(=O)O)c3)cc2C(=O)O)cc1` [6:1, 2-(4-butyl-benzoyl-amino)-5-[3-carboxy-methyl-4-(2,4-dichloro-benzoylamino)phenoxy]-benzoic acid] was tested. Which “% inh.” value did it give?
Answer: 99%

Question: For `O=C(Nc1ccc(Oc2ccc(NC(=O)c3cccc(Cl)c3)c(C(=O)O)c2)cc1C(=O)O)c1ccc(SC(F)(F)F)cc1` [2:1, 5-[3-carboxy-4-(4-(trifluoromethylthio)-benzamido)-phenyloxy]-2-(3-chlorobenz-amido)benzoic acid], which “% inh.” value is on record?
Answer: 98%

Question: `CCCCOc1ccc(S(=O)(=O)Nc2ccc(Oc3ccc(Nc4ccc(F)c(F)c4)cc3)cc2-c2nnn[nH]2)cc1` [Example 32:3, 4-Butoxy-N-[4-[4-(3,4-difluorophenyamino)phenoxy]-2-(tetrazol-5-yl)phenyl]-benzenesulfonamide] was tested. Which “% inh.” value did it give?
Answer: 98%

Question: With `O=C(Nc1ccc(Oc2ccc(NC(=O)c3ccccc3)c(C(=O)O)c2)cc1C(=O)O)c1ccccc1` [4:2, 5-[3-carboxy-4-benzamido-phenyloxy]-2-benzamidobenzoic acid] as the molecule, how does the inhibition at 10 µM read?
Answer: 93%

Question: For `CCCCc1ccc(C(=O)Nc2ccc(Oc3ccc(NC(=O)c4cc(Cl)cc(Cl)c4)c(C(=O)O)c3)cc2C(=O)O)cc1` [2:6, 5-[3-carboxy-4-(3-chloro-5-chloro-benzamido)-phenyloxy]-2-(4-butylbenz-amido)benzoic acid], which “% inh.” value is on record?
Answer: 100%

Question: For `O=C(O)c1cc(Oc2ccc(S(=O)(=O)Nc3ccc(F)c(F)c3)cc2)ccc1NC(=O)c1cccc(Cl)c1Cl` [25:5, 2-(2,3-Dichlorobenzoylamino)-5-[4-(3,4-difluorophenylsulfamoyl)-phenoxy]benzoic acid], which inhibition at 10 µM is on record?
Answer: 100%

Question: `O=C(O)c1cc(Oc2ccc(S(=O)(=O)Nc3ccc(Cl)cc3)cc2)ccc1Nc1ccc(F)c(F)c1` [Example 25:7, 5-[4-(4-Chlorophenylsulfamoyl)-phenoxy]-2-(3,4-difluorophenyl-amino)benzoic acid] was tested. Which inhibition at 10 µM did it give?
Answer: 100%

Question: Which inhibition at 10 µM does the source give for `CCCCc1ccc(S(=O)(=O)Nc2ccc(Oc3ccc(NC(=O)c4ccc(C(F)(F)F)cc4)c(C(=O)O)c3)cc2)cc1` [Example 11:1, 5-[4-(4-butylbenzene-sulfonylamino)phenoxy]-2-(4-trifluoromethylbenzoylamino)-benzoic acid] here?
Answer: 99%

Question: Which inhibition at 10 µM does the source give for `O=C(O)c1cc(Oc2ccc(Nc3ccc(Cl)cc3)cc2)ccc1Nc1ccc(Cl)cc1` [12:5, 2-(4-chloro-phenylamino)-5-[4-(4-chloro-phenylamino)-phenoxy]-benzoic acid] here?
Answer: 96%

Question: Which inhibition at 10 µM does the source give for `O=C(O)c1cc(Oc2ccc(Nc3ccc(F)c(F)c3)c(C(=O)O)c2)ccc1Nc1ccc(C(F)(F)F)nc1` [1:5, 5-[3-carboxy-4-(3,4-difluoro-phenylamino)phenyloxy]-2-(6-trifluoromethylpyridin-3-yl-amino)-benzoic acid] here?
Answer: 99%

Question: For `COc1ccc(S(=O)(=O)N(C)c2ccc(Oc3ccc(NC(=O)c4ccccc4Cl)c(C(=O)O)c3)cc2)cc1` [11:22, 2-(2-Chloro-benzoylamino)-5-{4-[(4-methoxybenzenesulfonyl)-methylamino]phenoxy}benzoic acid], which inhibition at 10 µM is on record?
Answer: 95%

Question: For `CCCCOc1ccc(S(=O)(=O)Nc2ccc(Oc3ccc(NC(=O)c4ccccc4)cc3)cc2CCC(=O)O)cc1` [Example 22:2, 3-[5-(4-Benzoylaminophenoxy)-2-(4-butoxybenzenesulfonylamino)-phenyl]propionic acid], which inhibition at 10 µM is on record?
Answer: 99%

Question: With `O=C(Nc1ccc(Cl)cc1)Nc1ccc(Sc2ccc(NC(=O)Nc3ccc(Cl)cc3)c(C(=O)O)c2)cc1` [14:5, 2-[3-(4-chlorophenyl)-ureido]-5-{4-[3-(4-chlorophenyl)-ureido]phenylsulfanyl}-benzoic acid] as the molecule, how does the inhibition at 10 µM read?
Answer: 97%

Question: `CCCCOc1ccc(S(=O)(=O)Nc2ccc(Oc3cccc(CC(=O)NS(=O)(=O)c4ccc(F)c(F)c4)c3)cc2C(=O)O)cc1` [26:4, 2-(4-Butoxybenzenesulfonylamino)-5-{3-[2-(3,4-difluorobenzenesulfonyl-amino)-2-oxoethyl]phenoxy}benzoic acid] was tested. Which inhibition at 10 µM did it give?
Answer: 95%

Question: Which inhibition at 10 µM does the source give for `CN(c1cc(Oc2ccc(NC(=O)c3cccc(Cl)c3)cc2)cc(C(=O)O)c1)c1ccc(F)c(F)c1` [18:6, 3-[4-(3-Chloro-benzoylamino)-phenoxy]-5-[(3,4-difluoro-phenyl)-methyl-amino]-benzoic acid] here?
Answer: 96%

Question: How did the “% inh.” value turn out when `CCCCc1ccc(C(=O)Nc2cccc(Oc3ccc(NC(=O)c4ccc(C(F)(F)F)cc4F)c(C(=O)O)c3)c2)cc1` [10:4, 5-[3-((4-(1-butyl)benzoyl)amino)-phenoxy]-2-(2-fluoro-4-trifluoro-methylbenzoylamino)benzoic acid] was run?
Answer: 95%

Question: Which inhibition at 10 µM does the source give for `O=C(Nc1ccc(Oc2ccc(NC(=O)c3cccc(Cl)c3)c(C(=O)O)c2)cc1C(=O)O)c1cccc(Cl)c1` [4:4, 5-[3-carboxy-4-(3-chlorobenzamido)phenyloxy]-2-(3-chlorobenzamido)benzoic acid] here?
Answer: 99%

Question: With `CCCCOc1ccc(S(=O)(=O)Nc2ccc(Oc3ccc(S(=O)(=O)Nc4ccc(Cl)cc4)cc3)cc2C(=O)O)cc1` [25:2, 2-(4-Butoxy-benzenesulfonyl-amino)-5-[4-(4-chlorophenylsulfamoyl)phenoxy]benzoic acid] as the molecule, how does the inhibition at 10 µM read?
Answer: 100%

Question: `CCCCOc1ccc(S(=O)(=O)Nc2ccc(Oc3ccc(N(C)C(=O)c4cccc(Cl)c4Cl)c(C(=O)O)c3)cc2)cc1` [11:10, 5-[4-(4-butoxybenzenesulfonyl-amino)phenoxy]-2-[(2,3-di-chlorobenzoyl)methylamino]-benzoic acid] was tested. Which inhibition at 10 µM did it give?
Answer: 95%

Question: How did the “% inh.” value turn out when `O=C(Nc1ccc(Oc2cccc(S(=O)(=O)Nc3ccc(F)c(F)c3)c2)cc1C(=O)O)c1ccc(Cl)cc1Cl` [19:3, 2-(2,4-Dichloro-benzoylamino)-5-[3-(3,4-difluoro-phenylsufamoyl)-phenoxy]-benzoic acid] was run?
Answer: 100%

Question: Which inhibition at 10 µM does the source give for `O=C(NS(=O)(=O)c1ccc(F)cc1)c1cccc(Oc2ccc(Nc3ccc(Cl)cc3)c(C(=O)O)c2)c1` [20:8, 5-[3-(4-Fluorobenzenesulfonyl-aminocarbonyl)-phenoxy]-2-(4-chloro-phenylamino)-benzoic acid] here?
Answer: 96%
